Results as given in patent publication US8008304B2, “Substituted propiolic acid amides and their use for producing drugs” (Grüenthal GmbH, priority 2005, dated 2011).
Structures can show the parent of a compound that is named as a salt.

Experiments:
mGluR5 receptor = target: T1, mGluR5 receptor (Sus scrofa, UniProt I3LUI7); assay: Inhibition of [3H]-MPEP bond in the mGluR5 receptor bond assay (pig brain homogenate); assay type: binding; conditions: 450 μg protein from pig brain homogenate, 5 nM [3H]-MPEP, 60 min, room temperature
T1 construct: from tissue; host or cells: pig brain halves without medulla, cerebellum and pons
T1 sequence (I3LUI7 19-1212): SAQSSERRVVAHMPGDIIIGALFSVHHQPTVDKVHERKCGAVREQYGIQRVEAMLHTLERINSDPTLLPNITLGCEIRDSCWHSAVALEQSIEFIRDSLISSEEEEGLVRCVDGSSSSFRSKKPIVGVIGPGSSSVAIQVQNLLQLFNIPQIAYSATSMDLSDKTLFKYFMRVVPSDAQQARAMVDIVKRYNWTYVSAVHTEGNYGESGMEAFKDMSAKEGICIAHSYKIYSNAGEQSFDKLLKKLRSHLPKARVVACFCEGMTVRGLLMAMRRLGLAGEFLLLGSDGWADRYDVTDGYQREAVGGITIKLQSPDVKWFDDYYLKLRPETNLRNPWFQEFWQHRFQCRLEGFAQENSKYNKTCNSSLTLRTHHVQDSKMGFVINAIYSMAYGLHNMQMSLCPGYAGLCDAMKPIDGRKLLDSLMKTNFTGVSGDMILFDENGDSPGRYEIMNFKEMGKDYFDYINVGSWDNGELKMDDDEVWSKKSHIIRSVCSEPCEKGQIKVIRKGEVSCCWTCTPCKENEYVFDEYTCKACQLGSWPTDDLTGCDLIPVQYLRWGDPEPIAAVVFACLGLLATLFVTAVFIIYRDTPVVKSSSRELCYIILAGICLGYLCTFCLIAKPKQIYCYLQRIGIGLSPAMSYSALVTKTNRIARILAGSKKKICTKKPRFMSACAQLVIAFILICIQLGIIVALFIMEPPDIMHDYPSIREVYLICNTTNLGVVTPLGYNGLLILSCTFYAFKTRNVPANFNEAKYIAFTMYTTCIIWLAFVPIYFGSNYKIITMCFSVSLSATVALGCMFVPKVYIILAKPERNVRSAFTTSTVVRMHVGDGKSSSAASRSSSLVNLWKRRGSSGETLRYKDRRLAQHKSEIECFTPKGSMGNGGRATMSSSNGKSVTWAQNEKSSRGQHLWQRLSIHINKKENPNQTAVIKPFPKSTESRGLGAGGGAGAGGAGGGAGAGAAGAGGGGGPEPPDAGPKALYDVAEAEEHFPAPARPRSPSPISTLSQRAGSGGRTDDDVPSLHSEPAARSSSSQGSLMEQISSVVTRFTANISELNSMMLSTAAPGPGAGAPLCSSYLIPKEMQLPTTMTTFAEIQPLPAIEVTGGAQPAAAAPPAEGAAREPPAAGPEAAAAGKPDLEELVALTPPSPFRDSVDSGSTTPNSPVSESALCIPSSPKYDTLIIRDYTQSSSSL
Description: Substituted propiolic acid amides of the above-mentioned general formula I are likewise particularly preferred, which, after 60 minutes of incubation in 450 μg protein from pig brain homogenate at a temperature between 20° C. and 25° C. in a concentration of less than 2000 nM, preferably of less than 1000 nM, particularly preferably of less than 700 nM, very particularly preferably of less than 100 nM, even more preferably of less than 30 nM, bring about a 50-percent displacement of [^3H]-2-methyl-6-(3-methoxyphenyl)-ethynylpyridine which is present in a concentration of 5 nM.
Thereby, the determination of the displacement of [^3H]-2-methyl-6-(3-methoxyphenyl)-ethynylpyridine is performed as described in the section Pharmacological Methods, I. Method for determining the inhibition of [^3H]-MPEP-bonding in the mGluR5 receptor bonding assay.
I. Method for Determining the Inhibition of the [^3H]-MPEP Bond in the mGluR5 Receptor Bond Assay
Pig brain homogenate is produced by homogenisation (Polytron PT 3000, Kinematica AG, 10,000 rpm for 90 seconds) of pig brain halves without medulla, cerebellum and pons in buffer pH 8.0 (30 mM Hepes, Sigma, order no. H3375+1 tablet complete to 100 ml, Roche Diagnostics, order no. 1836145) in ratio 1:20 (brain weight/volume) and differential centrifugation at 900×g and 40,000×g. In each case, 450 μg protein from brain homogenate is incubated with 5 nM ^3[H]-MPEP (Tocris, order no. R1212) (MPEP=2-methyl-6-(3-methoxyphenyl)-ethynylpyridine) in 250 μl incubation batches in 96 well microtitration plates and the compounds to be tested (10 μM in the test) in buffer (as above) at room temperature for 60 min.
Thereafter, the batches are filtered with the help of a Brandel Cell Harvester (Brandel, TYP Robotic 9600) on unifilter plates with glass fibre filter mats (Perkin Elmer, order no. 6005177) and subsequently washed with buffer (as above) 3 times with in each case 250 μl per sample. The filter plates are subsequently dried for 60 min at 55° C. 30 μL Ultima Gold™ scintillator is subsequently added per well (Packard BioScience, order no. 6013159) and the samples are measured after 3 hours on the β-counter (Mikrobeta, Perkin Elmer). The unspecific bond is determined by addition of 10 μM MPEP (Tocris, order no. 1212).

[1] = Formaline test in rats (phase 2, chronic pain component); assay type: in vivo; conditions: phase 2 (21 to 27 min after formaline injection)
Description: III. Formaline Test in Rats: The formaline test (Dubuisson, D. and Dennis, S. G., 1977, Pain, 4, 161-174) represents a model for acute and chronic pain. A biphasic nociceptive reaction, which is recorded by observation of three clearly differentiable behavioural patterns, is induced by a single formaline injection into the dorsal side of a rear paw in freely mobile test animals. The reaction has two phases: Phase 1=Immediate reaction (duration up to 10 min; paw shaking, licking), Phase 2=Late reaction (after a rest phase; likewise, paw shaking, licking; duration up to 60 min). The 1st phase reflects a direct stimulation of the peripheral nocisensors with high spinal nociceptive input or glutamate release (acute pain phase); the 2nd phase reflects a spinal and peripheral hypersensitisation (chronic pain phase). In the investigations presented here, the chronic pain component (phase 2) was evaluated. Formaline with a volume of 50 μl and a concentration of 5% is administered subcutaneously into the dorsal side of the right rear paw of each animal. The substances to be tested are administered for 30 min before the formaline injection orally (p.o.), intravenously (i.v.) or intraperitoneally (i.p.). […]

SMILES	IC50 (mGluR5 receptor) [nM]	Formaline test (rat) i.v. Reduction in nociceptive behaviour over control at 10 mg/kg [1] [%]
O=C(C#Cc1ccccc1)N1CCN(c2ccsc2)CC1 [Example 1, 1-(3-phenyl-propiolyl)-4-(thiophene-3-yl)-piperazine hydrochloride]	1890	–
O=C(C#Cc1ccccc1)N1CCN(c2cscn2)CC1 [Example 2, 1-(3-Phenyl-propiolyl)-4-(thiazol-4-yl)-piperazine]	630	–
Cn1ccnc1N1CCN(C(=O)C#Cc2ccccc2)CC1 [Example 3, 1-(3-phenyl-propiolyl)-4-(1-methyl-imidazol-2-yl)-piperazine hydrochloride]	4840	–
C[C@@H]1CN(c2cscn2)CCN1C(=O)C#Cc1cccc(Cl)c1 [Example 4, (R)-2-methyl-1-(3-(3-chloro-phenyl)-propiolyl)-4-(thiazol-4-yl)-piperazine]	16	75
CC1CN(c2nncs2)CCN1C(=O)C#Cc1cccc(Cl)c1 (stereo not drawn) [Example 5, 2-methyl 1-(3-(3-chloro-phenyl)-propiolyl)-4-(1,3,4-thiadiazol-2-yl)-piperazine]	27	–
CN(CCNC(=O)C#Cc1cccc(Cl)c1)c1nncs1 [Example 6, 3-(3-chlorophenyl)-N-(2-(methyl(1,3,4-thiadiazol-2-yl)amino)ethyl)propiolamide]	21	–
CN(CCNC(=O)C#Cc1cccc(Cl)c1)c1cncs1 [Example 7, 3-(3-chlorophenyl)-N-(2-(methyl(thiazol-5-yl)amino)ethyl)propiolamide]	0.5	–
CN(CCNC(=O)C#Cc1cccc(Cl)c1)c1nccn1C [Example 8, 3-(3-chlorophenyl)-N-(2-(methyl(1-methyl-1H-imidazol-2-yl)amino)ethyl)propiolamide]	350	–
